Test results reported in US20100240642A1, “1H-Indole-2-Carboxylic Acid Derivatives Useful As PPAR Modulators” (SMITHKLINE BEECHAM CORPORATION, priority 2006, published 2010).

These compounds were tested against T1, hPPARγ receptor (Homo sapiens, UniProt P37231) (assay: PPARγ Cell-based luciferase assay). Conditions: CV-1, read-out: agonism of the hPPARγ receptor (activation relative to full agonist rosiglitazone).
T1 construct: expressed in transfected cells; host or cells: CV-1 (African Green Monkey kidney, ATCC CCL-70)
T1 sequence (P37231 172-475 isoform P37231-2): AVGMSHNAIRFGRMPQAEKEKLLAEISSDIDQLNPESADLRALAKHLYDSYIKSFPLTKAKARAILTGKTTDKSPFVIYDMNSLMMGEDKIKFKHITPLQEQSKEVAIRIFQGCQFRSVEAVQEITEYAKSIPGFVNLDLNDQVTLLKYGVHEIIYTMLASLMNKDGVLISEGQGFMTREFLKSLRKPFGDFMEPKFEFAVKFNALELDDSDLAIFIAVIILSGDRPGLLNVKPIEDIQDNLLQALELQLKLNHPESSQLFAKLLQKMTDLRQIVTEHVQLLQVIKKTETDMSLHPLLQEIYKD
Source text: Plasmids—PCR primers containing Kpnl and BamHI restriction sites were used to amplify PPARγ ligand binding domain (LBD) fragment (172-475) from a full-length human clone. The LBD fragment was ligated into the multiple cloning site of pFA-CMV (Stratagene). The resulting construct (pFA-CMV-GAL4-hPPARγLBD carried a fusion of the LBD with the yeast-derived GAL4 DNA-binding domain under the control of the CMV immediate early promoter. Reporter construct UAStkLuc carries a single 17 bp (CGGAGTACTGTCCTCCG) upstream activating sequence (UAS), the tk minimal promoter, and the firefly luciferase gene. The integrity of each construct was confirmed by diagnostic restriction digestion and by sequencing. Plasmid DNA was prepared using Qiagen Maxi-Prep kits.
PPARγ Cell-based luciferase assay—African Green Monkey kidney cell line CV-1 (ATCC CCL-70) was maintained in Dulbecco's Modified Eagle's Medium (D-MEM) containing 10% fetal bovine serum, 2 mM glutamine, and 1% penicillin/streptomycin (pen/strep). In preparation for luciferase assays, CV-1 cells were grown in charcoal-stripped cell medium containing D-MEM/F-12 medium supplemented with 5% or 3% dextran-treated/charcoal-stripped (CS) fetal bovine serum, 2 mM glutamine, with or without 1% pen/strep, as described below. CS fetal bovine serum was purchased from Hyclone; all other cell culture reagents were from Gibco.
The luciferase protocol is a multi-day procedure. On day 1, confluent cells in maintenance medium were subcultured 1:10 into T-175 cm^2 flasks containing 50 mL of 3% CS medium with pen/strep. These flasks were allowed to incubate at 5% CO2 and 37° C. for 72 hours.
Cells were harvested by trypsinization and then transfected using FuGENE (Roche) according to the manufacturer's specifications. Briefly, each transfection contained 0.55 μg pFA_CMV_GAL4_hPPARγ_LBD plasmid, 10.9 μg UAStkLUC, and 24 μg pBluescript (carrier DNA). Plasmid DNA was mixed with FuGENE in OptiMEM-1 medium and incubated for 30 min at room temperature. During this incubation, cells were harvested into 3% CS medium without pen-strep and dispensed at 14 million cells per T-175 cm^2 flask. Transfection mixes were added to the flasks and incubated overnight at 5% CO2 and 37° C.
Transfected cells were added to 384-well plates containing pharmacological agents. Rosiglitazone standard was reconstituted in DMSO at 1 mM. For 11-point dose-response experiments, the compounds were 3-fold serially diluted in DMSO and then stamped to 384-well assay plates (NUNC, catalog #164564) at 0.5 μL/well using a Beckman FX. DMSO and agonist control compound Rosiglitazone (1 mM) were each stamped at 0.5 μL/well to columns 23 and 24, respectively, of the 384-well plates. Transfected cells were harvested in 5% CS medium with pen/strep and dispensed at 10,000 cells/well (50 μL) onto the prepared 384-well compound plates using a Titertek Multidrop. Following overnight incubation at 5% CO2 and 37° C., Steady-Glo reagent (Promega) was added to the assay plates using a Multidrop. Plates were incubated for 10 min to ensure complete cell lysis and read in a ViewLux (PerkinElmer). […] Partial agonism is defined here as 20-80% activation (relative to full agonist rosiglitazone) at concentrations of 10^−6 M or less.
Compound `COCCOc1cc(Cn2c(C(=O)O)c(-c3ccc(C(C)(C)C)cc3)c3ccccc32)cc(OC(=O)N(C)C)c1` [Example 49, 1-[(3-{[(dimethylamino)carbonyl]oxy}-5-{[2-(methyloxy)ethyl]oxy}phenyl)methyl]-3-[4-(1,1-dimethylethyl)phenyl]-1H-indole-2-carboxylic acid] has an Emax of 20 to 80%.
`COCCOc1cc(Cn2c(C(=O)O)c(-c3ccc(C(C)(C)C)cc3)c3ccccc32)cc(OC(=O)N2CCN(C)CC2)c1` [Example 50, 3-[4-(1,1-dimethylethyl)phenyl]-1-[(3-{[2-(methyloxy)ethyl]oxy}-5-{[(4-methyl-1-piperazinyl)carbonyl]oxy}phenyl)methyl]-1H-indole-2-carboxylic acid] gave an Emax of 20 to 80%.

Same assay, conditions: CV-1 cells transfected with GAL4-hPPARγ LBD and UAStkLuc; at concentrations of 10^−6 M or less; read-out: agonism of the hPPARγ receptor (activation relative to full agonist rosiglitazone)
`CNC(=O)c1cccc(-c2ccc(C)c(Cn3c(C(=O)O)c(-c4ccc(C(C)(C)C)cc4)c4ccccc43)c2)c1` [Example 29, 3-[4-(1,1-dimethylethyl)phenyl]-1-({4-methyl-3′-[(methylamino)carbonyl]-3-biphenylyl}methyl)-1H-indole-2-carboxylic acid] showed an Emax of 20 to 80%.
`Cc1ccc(-c2cccc(C(=O)NCc3cccs3)c2)cc1Cn1c(C(=O)O)c(-c2ccc(C(C)(C)C)cc2)c2ccccc21` [Example 30, 3-[4-(1,1-dimethylethyl)phenyl]-1-[(4-methyl-3′-{[(2-thienylmethyl)amino]carbonyl}-3-biphenylyl)methyl]-1H-indole-2-carboxylic acid] was tested, and the Emax was 20 to 80%.
For `Cc1ccc(-c2cccc(C(=O)NCCc3cccs3)c2)cc1Cn1c(C(=O)O)c(-c2ccc(C(C)(C)C)cc2)c2ccccc21` [Example 31], the Emax was 20 to 80%.
In the case of `Cc1ccc(-c2ccc(C(=O)NCc3cccs3)cc2)cc1Cn1c(C(=O)O)c(-c2ccc(C(C)(C)C)cc2)c2ccccc21` [Example 32, 3-[4-(1,1-dimethylethyl)phenyl]-1-[(4-methyl-4′-{[(2-thienylmethyl)amino]carbonyl}-3-biphenylyl)methyl]-1H-indole-2-carboxylic acid], the Emax is reported as 20 to 80%.
`Cc1ccc(-c2ccc(C(=O)NCCc3cccs3)cc2)cc1Cn1c(C(=O)O)c(-c2ccc(C(C)(C)C)cc2)c2ccccc21` [Example 33, 3-[4-(1,1-dimethylethyl)phenyl]-1-{[4-methyl-4′-({[2-(2-thienyl)ethyl]amino}carbonyl)-3-biphenylyl]methyl}-1H-indole-2-carboxylic acid] gave an Emax of 20 to 80%.
For `CC(C)(C)c1ccc(-c2c(C(=O)O)n(Cc3cccc(N4CCN(S(C)(=O)=O)CC4)c3)c3ccccc23)cc1` [Example 34, 3-[4-(1,1-dimethylethyl)phenyl]-1-({3-[4-(methylsulfonyl)-1-piperazinyl]phenyl}methyl)-1H-indole-2-carboxylic acid], the Emax was 20 to 80%.
Work on `CC(=O)N1CCN(c2cccc(Cn3c(C(=O)O)c(-c4ccc(C(C)(C)C)cc4)c4ccccc43)c2)CC1` [Example 35, 1-{[3-(4-acetyl-1-piperazinyl)phenyl]methyl}-3-[4-(1,1-dimethylethyl)phenyl]-1H-indole-2-carboxylic acid] yielded an Emax of 20 to 80%.
Work on `COC(=O)N1CCN(c2cccc(Cn3c(C(=O)O)c(-c4ccc(C(C)(C)C)cc4)c4ccccc43)c2)CC1` [Example 36, 3-[4-(1,1-dimethylethyl)phenyl]-1-[(3-{4-[(methyloxy)carbonyl]-1-piperazinyl}phenyl)methyl]-1H-indole-2-carboxylic acid] yielded an Emax of 20 to 80%.
`CC(C)(C)c1ccc(-c2c(C(=O)O)n(Cc3cccc(N4CCN(C(N)=O)CC4)c3)c3ccccc23)cc1` [Example 37, 1-({3-[4-(aminocarbonyl)-1-piperazinyl]phenyl}methyl)-3-[4-(1,1-dimethylethyl)phenyl]-1H-indole-2-carboxylic acid] showed an Emax of 20 to 80%.
Compound `CC(C)(C)OC(=O)NS(=O)(=O)N1CCN(c2cccc(Cn3c(C(=O)O)c(-c4ccc(C(C)(C)C)cc4)c4ccccc43)c2)CC1` [Example 38, 1-[(3-{4-[({[(1,1-dimethylethyl)oxy]carbonyl}amino)sulfonyl]-1-piperazinyl}phenyl)methyl]-3-[4-(1,1-dimethylethyl)phenyl]-1H-indole-2-carboxylic acid] has an Emax of 20 to 80%.
`CC(C)(C)c1ccc(-c2c(C(=O)O)n(Cc3cccc(N4CCN(S(N)(=O)=O)CC4)c3)c3ccccc23)cc1` [Example 39, 1-({3-[4-(aminosulfonyl)-1-piperazinyl]phenyl}methyl)-3-[4-(1,1-dimethylethyl)phenyl]-1H-indole-2-carboxylic acid] was tested, and the Emax was 20 to 80%.
In the case of `CN(C)CCOc1cc(Cn2c(C(=O)O)c(-c3ccc(C(C)(C)C)cc3)c3ccccc32)cc(OCC2CC2)c1` [Example 40, 1-[(3-[(cyclopropylmethyl)oxy]-5-{[2-(dimethylamino)ethyl]oxy}phenyl)methyl]-3-[4-(1,1-dimethylethyl)phenyl]-1H-indole-2-carboxylic acid], the Emax is reported as 20 to 80%.
For `CC(C)(C)c1ccc(-c2c(C(=O)O)n(Cc3cc(OCCN4CCCC4)cc(OCC4CC4)c3)c3ccccc23)cc1` [Example 41, 1-[(3-[(cyclopropylmethyl)oxy]-5-{[2-(1-pyrrolidinyl)ethyl]oxy}phenyl)methyl]-3-[4-(1,1-dimethylethyl)phenyl]-1H-indole-2-carboxylic acid], the Emax was 20 to 80%.
In the case of `CN(C)CCCOc1cc(Cn2c(C(=O)O)c(-c3ccc(C(C)(C)C)cc3)c3ccccc32)cc(OCC2CC2)c1` [Example 43, 1-[(3-[(cyclopropylmethyl)oxy]-5-{[3-(dimethylamino)propyl]oxy}phenyl)methyl]-3-[4-(1,1-dimethylethyl)phenyl]-1H-indole-2-carboxylic acid], the Emax is reported as 20 to 80%.
In the case of `CC(C)(C)c1ccc(-c2c(C(=O)O)n(Cc3cccc(N4CCSCC4)c3)c3ccccc23)cc1` [Example 44, 3-[4-(1,1-dimethylethyl)phenyl]-1-{[3-(4-thiomorpholinyl)phenyl]methyl}-1H-indole-2-carboxylic acid], the Emax is reported as 20 to 80%.
With `CC(C)(C)c1ccc(-c2c(C(=O)O)n(Cc3cccc(N4CCS(=O)(=O)CC4)c3)c3ccccc23)cc1` [Example 45, 3-[4-(1,1-dimethylethyl)phenyl]-1-{[3-(1,1-dioxido-4-thiomorpholinyl)phenyl]methyl}-1H-indole-2-carboxylic acid] the Emax was 20 to 80%.
`CCOC(=O)N1CCN(c2cccc(Cn3c(C(=O)O)c(-c4ccc(C(C)(C)C)cc4)c4ccccc43)c2)CC1` [Example 46, 3-[4-(1,1-dimethylethyl)phenyl]-1-[(3-{4-[(ethyloxy)carbonyl]-1-piperazinyl}phenyl)methyl]-1H-indole-2-carboxylic acid] was tested, and the Emax was 20 to 80%.
Work on `CC(C)OC(=O)N1CCN(c2cccc(Cn3c(C(=O)O)c(-c4ccc(C(C)(C)C)cc4)c4ccccc43)c2)CC1` [Example 47, 3-[4-(1,1-dimethylethyl)phenyl]-1-{[3-(4-{[(1-methylethyl)oxy]carbonyl}-1-piperazinyl)phenyl]methyl}-1H-indole-2-carboxylic acid] yielded an Emax of 20 to 80%.
`COCCOC(=O)N1CCN(c2cccc(Cn3c(C(=O)O)c(-c4ccc(C(C)(C)C)cc4)c4ccccc43)c2)CC1` [Example 48, 3-[4-(1,1-dimethylethyl)phenyl]-1-({3-[4-({[2-(methyloxy)ethyl]oxy}carbonyl)-1-piperazinyl]phenyl}methyl)-1H-indole-2-carboxylic acid] was tested, and the Emax was 20 to 80%.
